Test results from US11795152B2, “Crystal form of tafamidis and preparation method therefor and use thereof” (CRYSTAL PHARMACEUTICAL (SUZHOU) CO., LTD., priority 2019, dated 2023).

Test: Stability of crystalline form of Compound I in WO2019175263 in drug product formulation process
Assay type: physicochemical
Details: formulation of Table 34, stirring at room temperature
From the text: The crystalline form of Compound I in WO2019175263 was made into drug products according to the formulation and preparation process in Table 34 and Table 35. The XRPD patterns were collected before and after the formulation process. […] Form change occurred during stirring at room temperature.

O=C(O)c1ccc2nc(-c3cc(Cl)cc(Cl)c3)oc2c1
stability in the formulation process (XRPD before and after): unstable in the formulation process
